Here are results for four compounds from ChEMBL document CHEMBL5126508, “Therapeutic potential of quinazoline derivatives for Alzheimer's disease: A comprehensive review” (Eur J Med Chem, 2022).

In assay [1] the target is Amyloid-beta precursor protein (Homo sapiens, UniProt P05067). Briefly: Inhibition of amyloid beta 1 to 42 (unknown origin) […].
Assay [2] has as its target T1, Amine oxidase [flavin-containing] A (Homo sapiens, UniProt P21397).
T1 sequence (P21397 whole entry): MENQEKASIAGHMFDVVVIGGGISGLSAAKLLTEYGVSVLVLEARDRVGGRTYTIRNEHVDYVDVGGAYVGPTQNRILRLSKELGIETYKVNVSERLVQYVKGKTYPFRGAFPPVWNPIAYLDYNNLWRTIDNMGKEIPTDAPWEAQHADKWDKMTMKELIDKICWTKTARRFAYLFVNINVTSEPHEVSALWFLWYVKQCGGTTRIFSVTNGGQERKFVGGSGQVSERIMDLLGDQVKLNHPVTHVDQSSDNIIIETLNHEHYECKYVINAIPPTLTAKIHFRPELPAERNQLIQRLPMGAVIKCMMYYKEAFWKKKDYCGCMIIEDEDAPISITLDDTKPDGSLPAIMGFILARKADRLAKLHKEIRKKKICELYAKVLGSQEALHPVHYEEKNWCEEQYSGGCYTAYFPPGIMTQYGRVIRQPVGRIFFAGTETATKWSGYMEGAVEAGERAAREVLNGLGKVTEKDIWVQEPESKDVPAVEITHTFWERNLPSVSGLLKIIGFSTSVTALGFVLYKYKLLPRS
Kind of assay: Inhibition of MAO-A (unknown origin).

A further assay concerns the target Acetylcholinesterase (Homo sapiens, UniProt P22303). Briefly: Inhibition of AChE (unknown origin) by Ellman's method. In general terms: Ellman's reagent forms a yellow product with free thiols.
Another assay deals with Cholinesterase (Homo sapiens, UniProt P06276). Kind of assay: Inhibition of BuChE (unknown origin) by Ellman's method.
The test system of the next assay is SH-SY5Y. Briefly: Cytotoxicity against human SH-SY5Y cells assessed as cell viability at 100 uM relative to control. The class given is functional. As to conditions: read-out: Activity.
The target of assay [3] is 3',5'-cyclic-AMP phosphodiesterase 4D (Homo sapiens, UniProt Q08499). Briefly: Inhibition of PDE4D2 (unknown origin).
The target of a further assay is Phosphodiesterase 4 (Homo sapiens, UniProt P27815+Q08499+Q07343+Q08493). Kind of assay: Inhibition of PDE4 (unknown origin). The class given is protein assay.
In assay [4] the target is Cyclin-dependent kinase 3 (Homo sapiens, UniProt Q00526). Kind of assay: Inhibition of CDK3 (unknown origin).
Assay [5] deals with Cyclin-dependent kinase 2 (Homo sapiens, UniProt P24941). Briefly: Inhibition of CDK2 (unknown origin).
Assay [6] addresses Cyclin-dependent kinase 1 (Homo sapiens, UniProt P06493). Briefly: Inhibition of CDK1 (unknown origin).
In assay [7] the target is Cyclin-dependent kinase 4 (Homo sapiens, UniProt P11802). Kind of assay: Inhibition of CDK4 (unknown origin).

Each structure is given as a SMILES string. Some results are limits rather than exact numbers.

Chain of Cholinesterase (P06276 whole entry): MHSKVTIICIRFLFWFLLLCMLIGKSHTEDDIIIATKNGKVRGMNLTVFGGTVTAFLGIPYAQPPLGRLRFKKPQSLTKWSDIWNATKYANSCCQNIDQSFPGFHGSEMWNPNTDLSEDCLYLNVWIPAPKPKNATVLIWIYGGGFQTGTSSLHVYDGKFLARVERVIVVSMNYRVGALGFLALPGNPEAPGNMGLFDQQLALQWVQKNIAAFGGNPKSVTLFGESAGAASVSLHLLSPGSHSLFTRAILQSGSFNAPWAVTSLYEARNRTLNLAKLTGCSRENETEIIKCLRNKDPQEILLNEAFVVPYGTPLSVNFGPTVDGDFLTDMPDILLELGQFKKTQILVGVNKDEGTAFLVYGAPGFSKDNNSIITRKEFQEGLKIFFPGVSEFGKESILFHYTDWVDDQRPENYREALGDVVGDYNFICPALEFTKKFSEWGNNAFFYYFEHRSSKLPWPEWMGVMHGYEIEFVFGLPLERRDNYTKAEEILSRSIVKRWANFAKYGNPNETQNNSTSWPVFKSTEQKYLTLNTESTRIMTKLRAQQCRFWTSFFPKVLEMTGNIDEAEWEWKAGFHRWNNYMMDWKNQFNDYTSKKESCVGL
Chain of 3',5'-cyclic-AMP phosphodiesterase 4D (Q08499 whole entry): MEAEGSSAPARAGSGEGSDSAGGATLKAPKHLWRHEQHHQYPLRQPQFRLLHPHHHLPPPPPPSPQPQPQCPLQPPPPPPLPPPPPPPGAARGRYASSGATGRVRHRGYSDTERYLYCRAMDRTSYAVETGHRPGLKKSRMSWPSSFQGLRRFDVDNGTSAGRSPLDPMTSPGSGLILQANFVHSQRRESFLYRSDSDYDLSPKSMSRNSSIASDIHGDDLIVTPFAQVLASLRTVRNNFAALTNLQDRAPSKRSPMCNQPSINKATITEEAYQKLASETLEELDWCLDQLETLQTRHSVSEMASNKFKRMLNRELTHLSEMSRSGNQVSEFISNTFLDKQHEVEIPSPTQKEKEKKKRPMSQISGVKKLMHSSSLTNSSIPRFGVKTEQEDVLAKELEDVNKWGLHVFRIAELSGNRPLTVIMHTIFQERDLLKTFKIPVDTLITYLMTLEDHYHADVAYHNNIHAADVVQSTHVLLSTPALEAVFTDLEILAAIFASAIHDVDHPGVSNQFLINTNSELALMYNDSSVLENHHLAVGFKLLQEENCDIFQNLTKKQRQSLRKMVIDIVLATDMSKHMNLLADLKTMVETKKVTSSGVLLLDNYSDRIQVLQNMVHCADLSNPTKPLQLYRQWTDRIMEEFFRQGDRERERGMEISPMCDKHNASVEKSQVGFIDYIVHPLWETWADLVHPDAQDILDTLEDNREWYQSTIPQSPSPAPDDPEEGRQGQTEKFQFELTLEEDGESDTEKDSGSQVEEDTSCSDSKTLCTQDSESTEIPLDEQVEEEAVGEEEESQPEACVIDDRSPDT
Chain of Acetylcholinesterase (P22303 whole entry): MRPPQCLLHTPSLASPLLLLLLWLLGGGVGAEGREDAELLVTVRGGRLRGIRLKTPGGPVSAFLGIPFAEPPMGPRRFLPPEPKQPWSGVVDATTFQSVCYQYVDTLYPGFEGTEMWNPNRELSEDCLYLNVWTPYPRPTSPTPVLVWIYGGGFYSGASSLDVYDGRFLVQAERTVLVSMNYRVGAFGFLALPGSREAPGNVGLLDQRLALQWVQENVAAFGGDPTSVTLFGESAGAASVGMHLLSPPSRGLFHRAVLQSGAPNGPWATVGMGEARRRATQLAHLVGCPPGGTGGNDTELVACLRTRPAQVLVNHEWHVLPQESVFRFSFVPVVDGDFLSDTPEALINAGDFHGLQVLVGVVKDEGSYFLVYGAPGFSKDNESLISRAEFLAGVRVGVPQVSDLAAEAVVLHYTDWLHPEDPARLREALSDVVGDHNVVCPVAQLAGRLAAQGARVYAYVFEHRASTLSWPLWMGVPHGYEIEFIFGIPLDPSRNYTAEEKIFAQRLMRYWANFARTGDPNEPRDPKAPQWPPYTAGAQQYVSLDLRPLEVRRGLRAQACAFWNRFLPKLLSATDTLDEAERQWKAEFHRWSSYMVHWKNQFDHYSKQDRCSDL
Chain of Cyclin-dependent kinase 3 (Q00526 whole entry): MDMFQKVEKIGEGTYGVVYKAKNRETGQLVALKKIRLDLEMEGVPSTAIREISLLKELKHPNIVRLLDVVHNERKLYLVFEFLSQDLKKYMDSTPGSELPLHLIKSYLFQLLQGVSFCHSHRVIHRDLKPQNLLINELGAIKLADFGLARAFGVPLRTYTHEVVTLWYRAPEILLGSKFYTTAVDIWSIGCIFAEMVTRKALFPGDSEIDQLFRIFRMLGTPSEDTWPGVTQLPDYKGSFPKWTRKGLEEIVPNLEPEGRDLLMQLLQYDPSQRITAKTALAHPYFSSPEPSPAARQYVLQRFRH
Chain of Cyclin-dependent kinase 4 (P11802 whole entry): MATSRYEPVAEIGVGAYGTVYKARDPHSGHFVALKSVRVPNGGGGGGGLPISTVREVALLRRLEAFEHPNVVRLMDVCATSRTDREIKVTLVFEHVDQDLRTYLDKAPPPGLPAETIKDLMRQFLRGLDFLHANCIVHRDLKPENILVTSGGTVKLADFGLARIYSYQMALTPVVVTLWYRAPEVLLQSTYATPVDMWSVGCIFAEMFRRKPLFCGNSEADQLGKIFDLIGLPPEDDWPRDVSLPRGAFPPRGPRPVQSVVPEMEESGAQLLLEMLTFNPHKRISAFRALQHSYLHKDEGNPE
Chain of Cyclin-dependent kinase 1 (P06493 whole entry): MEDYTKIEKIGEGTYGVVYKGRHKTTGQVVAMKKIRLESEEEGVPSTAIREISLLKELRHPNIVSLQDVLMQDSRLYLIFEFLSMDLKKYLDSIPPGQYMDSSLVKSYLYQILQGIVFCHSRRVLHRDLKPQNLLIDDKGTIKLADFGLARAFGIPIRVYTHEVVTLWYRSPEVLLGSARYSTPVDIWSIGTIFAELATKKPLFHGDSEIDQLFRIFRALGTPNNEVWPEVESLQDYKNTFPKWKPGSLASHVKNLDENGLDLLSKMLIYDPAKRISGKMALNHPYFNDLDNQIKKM
Chain of Amyloid-beta precursor protein (P05067 whole entry): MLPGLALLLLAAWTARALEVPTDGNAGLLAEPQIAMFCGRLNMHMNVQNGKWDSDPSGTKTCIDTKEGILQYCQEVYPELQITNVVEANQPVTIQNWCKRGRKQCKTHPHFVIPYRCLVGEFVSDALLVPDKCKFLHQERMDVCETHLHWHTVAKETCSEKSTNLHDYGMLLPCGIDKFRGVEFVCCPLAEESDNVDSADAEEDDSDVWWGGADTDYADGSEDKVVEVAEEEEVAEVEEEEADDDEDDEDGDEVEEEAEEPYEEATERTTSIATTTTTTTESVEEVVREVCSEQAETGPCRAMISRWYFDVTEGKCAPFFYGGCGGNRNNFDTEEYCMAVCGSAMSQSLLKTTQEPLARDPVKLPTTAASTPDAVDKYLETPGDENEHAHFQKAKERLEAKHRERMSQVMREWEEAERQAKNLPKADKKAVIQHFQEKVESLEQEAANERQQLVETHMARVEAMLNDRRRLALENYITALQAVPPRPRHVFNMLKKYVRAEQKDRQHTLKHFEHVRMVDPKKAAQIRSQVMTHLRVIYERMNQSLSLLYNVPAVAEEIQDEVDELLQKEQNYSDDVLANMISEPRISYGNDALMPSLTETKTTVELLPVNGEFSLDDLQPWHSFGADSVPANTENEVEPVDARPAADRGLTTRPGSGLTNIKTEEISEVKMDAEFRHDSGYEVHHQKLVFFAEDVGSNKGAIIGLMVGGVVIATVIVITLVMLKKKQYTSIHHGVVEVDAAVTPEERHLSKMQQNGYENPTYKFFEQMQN

`COc1cc2c(Nc3ccc(C(=O)/C=C/c4nc(C)c(C)nc4C)cc3)ncnc2c(OC)c1OC`: the IC50 in [1] stood at 26.7 µM; in assay [2], 47.4 µM; against Acetylcholinesterase it was 0.1 µM; against Cholinesterase, 22.4 µM.
As to `O=C(NCCc1ccc(O)cc1)C1CCC2=Nc3ccc(Br)cc3CN21` (stereo unspecified), in the assay on SH-SY5Y, the viability at 100 µM is 78.6%.
With `CSc1nc2ccccc2c(=O)n1-c1c(F)cccc1F`, the IC50 (in [3]; against Phosphodiesterase 4) was 3.5 µM each time.
As to `COC(=N)c1nc2ccc3ncnc(Nc4ccc(Cl)cc4Cl)c3c2s1`, the IC50 in assay [4] is > 10 µM; in assay [5], 0.0888 µM; in [6], 0.0228 µM; in [7] it was 0.059 µM.

What is called IC50 is the concentration that inhibits the measured activity by half. Low values mean greater potency in that assay, high ones weaker potency in that assay.
